Data on one compound can be found in article PMC9147171, “Pharmacokinetic/Pharmacodynamic Evaluation of a New Purine-2,6-Dione Derivative in Rodents with Experimental Autoimmune Diseases” (Pharmaceutics, 2022).

The target of one data set is T1, hrPDE3A (Homo sapiens, UniProt Q14432).
T1 construct: purchased SignalChem, Richmond, Canada
Description: PDE-Glo catalytic activity assay, PDE3A. The data set is classed as biochemical. How it is done: The inhibitory activity of compound 34 against hrPDE1B and hrPDE3A (SignalChem, Richmond, Canada) was assessed using the PDE-Glo™ catalytic activity assay (Promega Corporation, Madison, WI, USA). It was performed on 384-well plates according to manufacturer’s instructions with slight modifications. Solutions of both PDEs were prepared by diluting their stock solutions in the PDE-Glo™ Reaction Buffer and aliquots of 6.5 μL were added to the wells. A stock solution of the tested compound was prepared in DMSO at a concentration of 10 mM and serially diluted with the same solvent. The obtained solutions were further diluted with PDE-Glo™ Reaction Buffer (1:5, v/v) and aliquots of 1 μL were transferred to the respective wells. Then, the mixture was incubated for 10 min at 30 °C on a heated plate shaker (Grant Instruments, Cambridge, United Kingdom). The reaction was started by the addition of 2.5 μL of a 0.2 μM cAMP solution to each well and the plate was incubated for 10 min at 30 °C on a heated plate shaker. Moreover, for each series, respective control reactions were performed: no-substrate, no-enzyme negative control reactions; no-enzyme positive control reactions containing substrate; and no-inhibitor positive control reactions containing both the substrate and PDE. After incubation, the reaction was stopped by adding 2.5 μL of the PDE-Glo™ Termination Buffer. A volume of 2.5 μL of the PDE-Glo™ Detection Buffer was transferred to each well and the plate was incubated for 20 min at room temperature. Finally, an aliquot of 10 μL of the PDE-Glo Kinase® Reagent was added to the wells. The plate was incubated for 10 min at room temperature and luminescence was measured with a luminometer (BMG Labtech, Ortenberg, Germany). For each inhibitor concentration, four independent measurements were performed. The resulting data were expressed as percent of an uninhibited control and plotted against the inhibitor concentration. The IC50 values were estimated by nonlinear regression using ADAPT5 software (BMSR, Los Angeles, CA, USA).

Data set [1] in a line: Pharmacokinetic study in rats, single IP dose, serum. As to conditions: female, Lewis, rat. It counts as in vivo. How it is done:
Female Lewis rats and female C57BL/6 mice were administered IP with compound 34 dissolved in vehicle at a dose of 20 and 50 mg·kg^−1, respectively. Rats and mice were sacrificed at different time points (n = 3 per time point) following compound administration by decapitation under deep anesthesia. Thereafter, blood samples were harvested and allowed to clot at room temperature for 20 min and serum was separated by centrifugation at 3000 rpm for 10 min (EBA 12 R, Hettich, Germany). The obtained serum samples were stored at −80 °C until analysis.
Concentrations of compound 34 in rat and murine serum were quantified by an HPLC/UV method. To isolate the investigated compound, 100 μL of serum containing compound 34 or the same volume of blank serum spiked with a standard solution of compound 34, 10 μL of 4-(8-((furan-2-ylmethyl)amino)-1,3-dimethyl-2,6-dioxo-2,3,6,7-tetrahydro-1H-purin-7-yl)-N’-(2-hydroxybenzylidene)butanehydrazide methanol solution was used as an internal standard (IS) at a concentration of 80 μg·mL^−1, and 50 μL of 0.2 M NaOH solution was added. Subsequently, 1 mL of ethyl acetate was added to each sample and extraction was performed for 20 min on a VXR Vibrax shaker (IKA, Germany). Then, the samples were centrifuged (10,000× g, 5 min) on EBA 12 R centrifuge (Hettich, Germany) and the organic layers were collected and transferred to clean tubes. Subsequently, the organic layers were evaporated under a mild stream of nitrogen at 37 °C and the residues were dissolved in 100 μL of mobile phase and subjected to an HPLC analysis. The HPLC system (LaChrom Elite, Merck-Hitachi, Germany) consisted of L-2420 UV-VIS detector, an L-2200 autosampler, and an L-2130 pump. EZChrome Elite v. 3.2 (Merck-Hitachi, Germany) software was used for data acquisition and integration. The analysis was performed at ambient temperature on a LiChrospher 100 RP-18 column (250 × 4 mm) and a LiChroCART (4 × 4 mm) pre-column (Merck, Germany). The mobile phase was composed of acetonitrile mixed with 20 mM KH2PO4 water solution (pH = 4.5) at the ratio of 40:60 (v/v). A flow rate was 1 mL·min^−1 and analytical wavelength was set at 302 nm. The retention times of compound 34 and IS were approximately 6.3 min and 10.6 min. The method was validated according to the FDA Bioanalytical Method Validation Guidance for Industry (2018). The calibration curves constructed by plotting the peak area of the studied compound to the peak area of the IS vs. compound concentrations were linear in the tested concentration range, i.e., from 0.05–10 mg·L^−1 (r > 0.998). The limit of quantification was 0.05 mg·L^−1. […] The assay presented acceptable intra- and inter-assay precision and accuracy (i.e., they were within 15% of the CV and 15% of the nominal concentration, respectively) for all quality control concentrations (0.1, 1, and 5 mg·L^−1). The mean extraction efficiencies of the analyzed compound and the IS were above 80%.
Pharmacokinetics of compound 34 were investigated in rats and mice following single IP administration. One- and two-compartment models with first-order absorption and linear elimination were tested, but only the one-compartment model appropriately described the concentration-time courses of compound 34 in both rat and murine serum. […] The equations of the model are as follows:(1) dA/dt=−ka×A;A0=D×F, (2) Vd×dCp/dt=ka×A−CLT×Cp; Cp0=0 where A is the amount of the drug at the absorption site, ka is the first-order rate constant of drug absorption, D is the dose, F is the bioavailability, Vd is the volume of distribution, CLT is the total clearance, and Cp is the serum concentration of compound 34.

A further data set concerns PDE4B. The following applies: read-out: IC50 (µM) Against PDE Isoform PDE4B; cited from earlier work.
The next data set deals with PDE7A. The following applies: read-out: IC50 (µM) Against PDE Isoform PDE7A; cited from earlier work.

T1 sequence (Q14432 whole entry): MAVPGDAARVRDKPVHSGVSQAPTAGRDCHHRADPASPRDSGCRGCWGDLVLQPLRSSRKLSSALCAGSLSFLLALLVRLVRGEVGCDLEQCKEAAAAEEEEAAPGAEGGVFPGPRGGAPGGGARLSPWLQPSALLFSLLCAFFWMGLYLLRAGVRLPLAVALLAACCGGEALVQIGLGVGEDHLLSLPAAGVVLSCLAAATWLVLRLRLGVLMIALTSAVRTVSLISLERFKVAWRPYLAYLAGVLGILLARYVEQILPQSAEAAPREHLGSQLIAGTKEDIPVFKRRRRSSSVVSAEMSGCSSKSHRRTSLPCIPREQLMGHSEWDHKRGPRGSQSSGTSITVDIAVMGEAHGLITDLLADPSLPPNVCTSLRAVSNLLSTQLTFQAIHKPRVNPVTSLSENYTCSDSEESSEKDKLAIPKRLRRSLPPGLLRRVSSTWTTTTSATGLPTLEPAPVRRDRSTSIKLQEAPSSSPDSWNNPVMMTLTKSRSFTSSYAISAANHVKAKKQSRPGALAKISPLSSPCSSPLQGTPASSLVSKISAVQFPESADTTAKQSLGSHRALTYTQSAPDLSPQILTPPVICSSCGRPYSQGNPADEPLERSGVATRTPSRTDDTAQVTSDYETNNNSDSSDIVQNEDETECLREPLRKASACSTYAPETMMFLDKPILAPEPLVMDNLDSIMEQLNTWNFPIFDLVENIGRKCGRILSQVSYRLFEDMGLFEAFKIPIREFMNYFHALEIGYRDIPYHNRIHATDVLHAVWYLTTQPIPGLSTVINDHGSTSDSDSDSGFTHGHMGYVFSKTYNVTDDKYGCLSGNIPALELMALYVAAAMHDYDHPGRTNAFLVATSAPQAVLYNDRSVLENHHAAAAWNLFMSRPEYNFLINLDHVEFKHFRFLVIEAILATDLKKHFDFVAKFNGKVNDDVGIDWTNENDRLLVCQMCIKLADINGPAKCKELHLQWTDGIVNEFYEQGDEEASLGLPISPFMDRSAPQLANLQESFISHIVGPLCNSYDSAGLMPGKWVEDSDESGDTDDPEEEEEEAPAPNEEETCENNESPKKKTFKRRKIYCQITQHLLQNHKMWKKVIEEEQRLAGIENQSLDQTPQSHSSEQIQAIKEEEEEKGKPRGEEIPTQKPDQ

What is called IC50 is the midpoint of a concentration-inhibition curve. The term half-life denotes the time needed for the level to fall by half in the phase considered. For the compound `Cn1c(=O)c2c(nc(NCCc3ccccc3)n2CCCC(=O)NN=Cc2ccc(O)c(O)c2O)n(C)c1=O` [Compound 34, 4-(1,3-dimethyl-2,6-dioxo-8-(phenethylamino)-2,3,6,7-tetrahydro-1H-purin-7-yl)-N′-(2,3,4-trihydroxybenzylidene)butanehydrazide], the IC50 was 0.78 µM at hrPDE3A (human recombinant PDE3A, CV% in brackets, read-out: IC50 (µM) Against PDE Isoform (CV%) PDE3A); 1.4 µM in the data set with PDE4B; 3.2 µM with PDE7A. In addition, the “times more potent than GRMS-55 in inhibiting PDE3A” value at hrPDE3A (ratio of IC50 values, vs GRMS-55) is on record as 17 times. In addition, the “inhibitory activity against PDE3A, times lower compared to milrinone” value on hrPDE3A (ratio of IC50 values, vs milrinone) is given as “about 4 times”. The same compound registered an absorption half-life in data set [1] (serum, 20 mg·kg^−1, IP, suspension in 10% methylcellulose) of 1.2 min. In addition, the Vd/F in data set [1] (single IP dose 20 mg·kg^−1, serum, one-compartment model, read-out: Vd/F Apparent volume of distribution, Final Estimate (CV%)) was 8.7 L/kg. Further, the AUC in data set [1] (single IP dose 20 mg·kg^−1, serum, read-out: AUC Area under the concentration-time curve, Final Estimate (CV%) (converted)) was 752 ng·h/mL. In data set [1] (single IP dose 20 mg·kg^−1, serum, read-out: CLT/F Apparent clearance, Final Estimate (CV%)), the CL/F is 440 mL/min/kg. Also, the Cmax in data set [1] (single IP dose 20 mg·kg^−1, serum, read-out: Cmax Maximum serum concentration, Final Estimate (CV%)) was 1820 ng/mL. Besides, the half-life in data set [1] (single IP dose 20 mg·kg^−1, serum, read-out: t0.5 Elimination half-life, Final Estimate (CV%)) is 13.6 min.
